This passage reports IC50 results from patent US10780082B2, “Macrocycle and composition comprising thereof” (Shenzhen TargetRx, Inc., priority 2016, dated 2020).

pIC50: −log10 of the molar value.

The test deals with BaF3-NPM-ALK cells. Put plainly: Cytotoxicity experiment, ALK WT cells. It counts as cell-based, murine. Particulars: two days incubation. The protocol: The cell line that can be used in the assay is Ba/F3, a murine pro-B cell line that has been stably transfected with the expression vector pClneo™ (Promega Corp., Madison Wis.) encoding NPM-ALK and subsequently G418-resistent cells were selected. The inhibitory activity of the compounds of Formula I can be determined as follows: BaF3-NPM-ALK cells (15000/well in a microtiter plate) were transferred to a 96-well microtiter plate. Test compounds (dissolved in DMSO) were then added in a series of concentrations (serial dilutions) with a final concentration of DMSO not exceeding 1% (v/v). […] The cell lysis was completed at room temperature within 60 minutes and the amount of Yopro bound to the DNA was determined by measurement using, for example, a CytoFluor II 96-well reader (PerSeptive Biosystems). IC50 can be determined by computer aided system using the following formula: IC50=[(ABS test−ABS start)/(ABS control−ABS start)]×100 wherein ABS was absorption.

For the compound `CC1Oc2cc(cnc2N)-c2c(nn(C)c2C#N)CN(C)C(=O)c2ccc(F)cc21` (racemic) [Compound 28], the pIC50 (in general, the negative decadic logarithm of the IC50, by convention in mol/L) is over 9.00.

Turning to `C[C@H]1Oc2cc(cnc2N)-c2c(nn(C)c2C#N)CN(C)C(=O)c2ccc(F)cc21` [PF-06463922, reference compound], the negative-log IC50 (pIC50) is over 9.00.

Consider `CC1Oc2cc(cnc2N)-c2c(nn(C)c2C#N)CN(C)C(=O)c2ccc(F)cc21` (racemic) [Compound 45], for which the pIC50 was over 9.00.

In turn, `CC1Oc2cc(cnc2N)-c2c(nn(C)c2C#N)CN(C)C(=O)c2ccc(F)cc21` (racemic) [Compound 58] showed a pIC50 of over 9.00.

Regarding `CC1Oc2cc(cnc2N)-c2c(nn(C)c2C#N)CN(C)C(=O)c2ccc(F)cc21` (racemic) [Compound 76], the pIC50 is over 9.00.

Regarding `CC1Oc2cc(cnc2N)-c2c(nn(C)c2C#N)CN(C)C(=O)c2ccc(F)cc21` (single isomer, unassigned) [Compound 18], the pIC50 is over 9.00.

The compound `CC1Oc2cc(cnc2N)-c2c(nn(C)c2C#N)CN(C)C(=O)c2ccc(F)cc21` (racemic) [Compound 72] had a pIC50 of over 9.00.
